According to paper PMC10610016, “New Hybrid Compounds Incorporating Natural Products as Multifunctional Agents against Alzheimer’s Disease” (Pharmaceutics, 2023):

Assays:
[1] = DPPH radical scavenging assay; format: biochemical
Procedure: The DPPH assay was carried out in a 96-microwell plate according to a previously described protocol. In brief, DPPH solution (60 µM in MeOH) was added to studied compounds or MeOH as the control. The 96-microwell plate was incubated (in the dark, at r.t. for 1 h) and the absorbance values were read at 517 nm by a SPECTROstarNano (220–1000 nm) UV–Vis spectrophotometer, Ortenberg, Germany. During the first screening, all compounds were tested ad 100 µM, then for compounds 2a–c the EC50 (effective concentration), the concentration of substrate that causes a 50% reduction in the DPPH colour, was calculated.
All experiments were made in triplicate. The percentage of the antioxidant activity (%AA) of the compounds was determined according to Equation (1):%AA = ((AbsDPPH − Abssample)/AbsDPPH) × 100(1)
AbsDPPH is the absorbance of DPPH solution, and Abssample is the absorbance of DPPH solution containing the tested compound.
Each concentration was tested in triplicate and the EC50 value was reported as the mean ± the standard error of the mean (SEM) of three independent experiments.

[2] = ABTS assay; format: biochemical
Procedure: The ABTS assay was performed according to the methods reported in literature. Briefly, 7 mM of ABTS was mixed with 2.45 mM of K2S2O8 solution, ratio 1:1, in 10 mM phosphate buffer (pH 7.4). The mixture was incubated in a dark box at r.t. for 12 h, then the stock solution was diluted until the absorbance was 0.70 ± 0.02 at 734 nm.
In a 96-well plate, 190 µL ABTS working solution and 10 µL sample solution (compounds 2a–c, 3a–c at concentration of 100 μM) were mixed and the absorbance was measured (734 nm) using a SPECTROstarNano (220–1000 nm) UV–Vis spectrophotometer, Ortenberg, Germany. Then, for compounds 2a–c the EC50 was calculated and the values were expressed in TEAC equivalents. Each concentration was tested in triplicate and the EC50 was reported as the mean ± SEM of three independent experiments.

[3] = system: rat brain homogenate; experiment: TBARS assay, ex vivo rat brain homogenate (Fe3+/ascorbic acid lipid peroxidation); format: biochemical; settings: compound 1 μM
Procedure: The TBARS assay was carried on in accordance with a previously published protocol. Briefly, the rat brain, freshly isolated, was homogenized in 10% (w/v) phosphate buffer, pH 7.4. The stock solutions of compounds 2a–c and 3a–c (10 mM in DMSO) were prepared and then diluted at three different concentrations (1 mM, 100 µM, and 10 µM) with phosphate buffer pH 7.4. The experiment was performed in a falcon tube where the rat brain homogenate (100 µL) was added to FeCl3 (20 µM) and ascorbic acid (100 µM) with or without test compounds. […] All samples were heated at 37 °C and were stirred for 30 min. After this period, thiobarbituric acid (1% w/v in 0.05 N NaOH) and 25% v/v HCl were added and the falcon tubes were boiled for 10 min. Then, they were cooled in an ice-cold water bath. Finally, the extraction was executed using n-butanol (3 mL) and the tubes were centrifuged at 2000 g for 10 min. The organic portion was transferred into 96-well plates and the absorbance, at 532 nm, was recorded using a SPECTROstarNano (220–1000 nm) UV–Vis spectrophotometer, Ortenberg, Germany. The TBARS was reported as nmoles of malondialdehyde (MDA)/10 mg of rat brain tissue, by interpolation with the standard curve of 1,1,3,3-tetramethoxypropane. Data represent the mean ± SEM of the triplicate.

[4] = mean ± SEM of three independent experiments

EC50 [1, 4]: 6.1 ± 0.1 µM
EC50 [2, 4]: 13.4 ± 0.1 µM
melting point: 110 to 112 °C
SMILES: O=C(/C=C/c1ccc(O)c(O)c1)NOCc1cccc(C(F)(F)F)c1 [Compound 2b, (E)-3-(3,4-dihydroxyphenyl)-N-((3-(trifluoromethyl)benzyl)oxy)acrylamide]
%AA (percentage of antioxidant activity), DPPH ([1]; compound 100 µM, DPPH 60 µM in MeOH, 1 h): 96%
TEAC (Trolox equivalent antioxidant capacity), DPPH [1, 4]: 10.9 ± 0.3 µM
radical scavenger / antioxidant activity, ABTS ([2]; compound 100 µM): 98.8%
TEAC, ABTS [2, 4]: 11.7 ± 0.01 µM
antioxidant effect on TBARS production in rat brain [3]: maintained its profile
